# In ChEMBL document CHEMBL5154842, “Unique Carbazole-Oxadiazole Derivatives as New Potential Antibiotics for Combating Gram-Positive and -Negative Bacteria” (J Med Chem, 2022):
# Activity calls are given as the source filed them. No cut-off for these calls is given here.
# How the values were obtained:
# [1] = Hemolytic activity in human RBC assessed as hemolysis at 1 to 32 ug/ml measured after 60 mins by microplate reader assay relative to control; assay type: toxicity, cell-based, Erythrocyte; conditions: red blood cells (erythrocytes), at 1 to 32 µg/mL, dose 1-32 µg/ml, read-out: Activity
# Staphylococcus aureus [2] = assay: Antibacterial activity against Staphylococcus aureus 29213 assessed as inhibition of bacterial growth incubated for 24 hrs by CLSI protocol based two fold serial dilution method; assay type: functional
# Escherichia coli [3] = assay: Antibacterial activity against Escherichia coli assessed as inhibition of bacterial growth incubated for 24 hrs by CLSI protocol based two fold serial dilution method; assay type: functional
# Escherichia coli [4] = assay: Antibacterial activity against Escherichia coli 25922 assessed as inhibition of bacterial growth incubated for 24 hrs by CLSI protocol based two fold serial dilution method; assay type: functional
# Acinetobacter baumannii = assay: Antibacterial activity against Acinetobacter baumannii assessed as inhibition of bacterial growth incubated for 24 hrs by CLSI protocol based two fold serial dilution method; assay type: functional
# Staphylococcus aureus [5] = assay: Antibacterial activity against methicillin-resistant Staphylococcus aureus N315 assessed as inhibition of bacterial growth at 0.25 to 64 ug/ml incubated for 24 hrs by Alamar blue assay; assay type: functional, organism-based; conditions: dose 0.25-64 µg/ml
# Klebsiella pneumoniae = assay: Antibacterial activity against Klebsiella pneumonia assessed as inhibition of bacterial growth incubated for 24 hrs by CLSI protocol based two fold serial dilution method; assay type: functional
# Pseudomonas aeruginosa [6] = assay: Antibacterial activity against Pseudomonas aeruginosa ATCC 27853 assessed as inhibition of bacterial growth incubated for 24 hrs by CLSI protocol based two fold serial dilution method; assay type: functional
# Staphylococcus aureus [7] = assay: Antibacterial activity against Staphylococcus aureus assessed as inhibition of bacterial growth incubated for 24 hrs by CLSI protocol based two fold serial dilution method; assay type: functional
# Staphylococcus aureus [8] = assay: Antibacterial activity against Staphylococcus aureus 25923 assessed as inhibition of bacterial growth incubated for 24 hrs by CLSI protocol based two fold serial dilution method; assay type: functional
# Pseudomonas aeruginosa [9] = assay: Antibacterial activity against Pseudomonas aeruginosa assessed as inhibition of bacterial growth incubated for 24 hrs by CLSI protocol based two fold serial dilution method; assay type: functional
# Staphylococcus aureus [10] = assay: Antibacterial activity against methicillin-resistant Staphylococcus aureus N315 assessed as inhibition of bacterial growth at 0.5 to 16 ug/ml measured after 24 hrs by microplate reader assay; assay type: functional, organism-based; conditions: dose 0.5-16 µg/ml
# Enterococcus faecalis = assay: Antibacterial activity against Enterococcus faecalis assessed as inhibition of bacterial growth incubated for 24 hrs by CLSI protocol based two fold serial dilution method; assay type: functional
# Staphylococcus aureus [11] = assay: Antibacterial activity against methicillin-resistant Staphylococcus aureus N315 assessed as inhibition of bacterial growth incubated for 24 hrs by CLSI protocol based two fold serial dilution method; assay type: functional
SMILES,hemolysis at 1 h [1] [%],MIC (Staphylococcus aureus [2]) [µg/mL],MIC (Escherichia coli [3]) [µg/mL],MIC (Escherichia coli [4]) [µg/mL],MIC (Acinetobacter baumannii) [µg/mL],Activity (Staphylococcus aureus [5]),MIC (Klebsiella pneumoniae) [µg/mL],MIC (Pseudomonas aeruginosa [6]) [µg/mL],MIC (Staphylococcus aureus [7]) [µg/mL],MIC (Staphylococcus aureus [8]) [µg/mL],MIC (Pseudomonas aeruginosa [9]) [µg/mL],Activity (Staphylococcus aureus [10]),MIC (Enterococcus faecalis) [µg/mL],MIC (Staphylococcus aureus [11]) [µg/mL]
CCOc1cccc2c1c1ccccc1n2Cc1nnc(S)o1,< 3,0.5,0.5,0.25,0.25,Active,32,256,64,16,256,Active,1,1
Sc1nnc(Cn2c3ccccc3c3c(OCc4ccc(Cl)cc4)cccc32)o1,,256,256,4,256,,256,256,256,256,256,,256,256
Sc1nnc(COc2cccc3[nH]c4ccccc4c23)o1,,128,1,4,64,,4,64,64,64,256,,2,2
CCCCOc1cccc2c1c1ccccc1n2Cc1nnc(S)o1,,256,256,256,0.25,,256,256,256,256,256,,4,256
CCSc1nnc2c3ccccc3n(Cc3nnc(S)o3)c2n1,,256,256,256,256,,256,256,256,256,256,,256,256
CC(C)=CCn1c2ccccc2c2c(OCc3nnn[nH]3)cccc21,,32,32,128,32,,32,0.5,256,64,256,,256,16
CCCCCCCCCCCCOc1cccc2c1c1ccccc1n2Cc1nnc(S)o1,,128,256,256,256,,256,256,256,256,256,,256,256
